Among the data in patent publication US9458120B2, “Phenoxypropanol derivative and pharmaceutical composition including the same” (KOREA INSTITUTE OF SCIENCE AND TECHNOLOGY, priority 2011, dated 2016) are inhibition values, retold here.

The target of experiment [1] is α1G T-type calcium channel (Homo sapiens, UniProt O43497). Nature of the experiment: Assay for T-type calcium channel inhibition activity (FDSS6000 calcium imaging, KCl activation). As to conditions: 75 s pre-treatment then KCl 75 mM, HEK293 cells expressing α1G T-type calcium channel and Kir2.1. It is filed as cell-based. How it is done:
At 12-24 hours before the assay for T-type calcium channel activity, cells of HEK293 cell line (α1G cell line: KCTC 10519BP, GenBank, Korea Research Institute of Bioscience and Biotechnology) which stably express α1G T-type calcium channel and Kir2.1, were sub-cultured in a poly-L-lysine (0.05 mg/ml) treated 96-well plate with the density of 4×10^4 per a well using a 96-well cell dispenser (Titertek). On the day of assay, the 96-well plate to which the cells were attached were washed three times with a HEPES buffer solution (unit mM: 150 NaCl, 5 KCl, 1 MgCl2, 2 CaCl2, 10 HEPES, 10 glucose, pH 7.4) using a 96-well plate automatic washing device (Bio Tek), and then reacted with a HEPES buffer solution containing 5 μM fluo-3/AM and 0.001% (w/v) Pluronic F-127 at room temperature for 1 hour, to label with fluorescent dye, and then further washed twice with the HEPES buffer solution. Thereafter, at 10 minutes before the measurement using a FDSS6000 device, a washing with a HEPES buffer solution containing 10 mM CaCl2 was conducted once more, and the final volume was adjusted to 81 μl. Besides the above 96-well plate containing the cells, additional two 96-well drug plates were provided, in which the 96-well plates contained KCl (final concentration: 75 mM) for activating T-type calcium channel and a blocker drug, respectively.
Since most of cell-based HTS (High throughput screening) devices are equipped with a liquid application system for drug injection, but have no liquid sucking system, the blocker drug to be tested and KCl were respectively provided at the five-times higher concentration in 10 mM CaCl2 HEPES buffer solution at the amount of 27 μl, diluted five-times at the final cell plate volume of 135 μl, and then used in this test. In this Experimental Example, therefore, FDSS6000 (Hamamatsu Photonics) was used as an alternative to HTS device.
Specific FDSS6000 measurement conditions are as follows: After recording the reference value of 20 seconds, the change of intracellular calcium concentration which induced by pre-treatment of the drug (the prepared […]) for 75 seconds followed by administration of KCl was measured, in which the percentage (%) inhibition effect of the test drug was determined, through estimating the area of ratio value of 340/380 in the control without treatment of the test drug as 100%. As a reference drug, 10 μM of mibefradil was always used.
For accurate calcium-imagination, the light sources of 4 xenon lamps in FDSS6000 were radiated to make the cells exposed selectively to the excitation wavelength (340 nm and 380 nm) by computer-controlled filter wheel. Data was obtained at interval of each 1.23 second. The emitter fluorescence light inflow through a 515 nm long-pass filter was obtained as an average 340/380 ratio value for each well in the 96-wells by a cooled CCD camera and digital fluorescence analyzer in the device. All image data and analysis were obtained by using a FDSS6000-exclusive program provided by Hamamatsu Photonics, as described above.

The target in a further experiment is T1, TREK-1 channel (Rattus norvegicus, UniProt Q920B6).
T1 construct: expressed in transfected cells; host or cells: COS7 (Korean Cell Line Bank), transient transfection with Effectene
T1 sequence (Q920B6 1-426): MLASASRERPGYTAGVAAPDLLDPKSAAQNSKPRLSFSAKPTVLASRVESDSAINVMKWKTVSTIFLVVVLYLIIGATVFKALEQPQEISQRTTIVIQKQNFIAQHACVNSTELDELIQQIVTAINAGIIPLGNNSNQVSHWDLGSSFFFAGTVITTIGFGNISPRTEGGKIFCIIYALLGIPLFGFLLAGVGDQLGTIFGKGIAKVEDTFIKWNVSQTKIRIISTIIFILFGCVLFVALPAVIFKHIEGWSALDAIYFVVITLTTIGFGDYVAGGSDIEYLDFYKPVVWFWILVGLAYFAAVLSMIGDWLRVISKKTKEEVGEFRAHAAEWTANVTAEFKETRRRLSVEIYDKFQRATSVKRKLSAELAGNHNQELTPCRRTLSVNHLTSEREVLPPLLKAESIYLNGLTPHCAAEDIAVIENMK
Nature of the experiment: Assay for TREK channel inhibition activity (whole cell patch clamp recording, COS7 cell transfected with GFP-rTREK-1). It is filed as cell-based. The note with it: COS7 cells, GFP-rTREK-1, whole-cell patch clamp; for inhibition at 101 µM: COS-7, Table 3 (value ± spread), 101 μM [sic], read-out: block % at 101 μM; for inhibition at 10 µM: COS-7, Table 2, read-out: block % at 10 μM. How it is done: The inhibition activity of the compound of the present invention against TREK-1 channel was measured by measuring the physiological activity by whole cell patch clamp recording.
COS7 cell (obtained from Korean Cell Line Bank (KCLB)) was transfected with GFP-rTREK-1 gene (accession number: AY727922) using an Effectene transfection reagent (Qiagen), and cultured for 24 hours in an incubator at 37° C. As a culture medium, Dulbecco's modified Eagle's medium (DMEM, GIBCO products from Invitrogen) containing 10% by weight of fetal bovine serum (FBS) and 1% by weight of penicillin/streptomycin (5000 unit/ml) was used. The cells thus prepared were adhered on a cover glass, which was placed on a chamber, and then a recording solution (150 mM NaCl, 10 mM HEPES, 10 mM KCl, 2 mM CaCl2, 5.5 mM D-Glucose, all reagents were purchased from Sigma) was applied. A glass microelectrode was filled with an intracellular solution prepared with the composition of 150 mM KCl, 5 mM EGTA, 10 mM HEPES, 0.5 mM CaCl2, 1 mM MgCl2, 4 mM Mg-ATP, and 0.3 mM Na-GTP (all reagents were purchased from Sigma), followed by whole-cell patch clamp recording. The voltage was fixed at −70 mV using a Digidata 1322A data acquisition system (Molecular Devices) and an Axopatch 200A amplifier (Axon Instruments), and the current generated by applying a voltage ramp from −100 mV to +100 mV for 1 second was measured using a Clampex9.2 program. A difference between the current values measured at +100 mV and −100 mV was defined as a current in the above experiment. The currents before and after blocker treatment were measured so as to determine the inhibition activity.
Block %=100−(current after blocker treatment/current before blocker treatment)*100
(In general: In patch-clamp work, channel activity is measured electrically.)

The structures appear in SMILES notation.

Sequence of α1G T-type calcium channel (O43497 whole entry): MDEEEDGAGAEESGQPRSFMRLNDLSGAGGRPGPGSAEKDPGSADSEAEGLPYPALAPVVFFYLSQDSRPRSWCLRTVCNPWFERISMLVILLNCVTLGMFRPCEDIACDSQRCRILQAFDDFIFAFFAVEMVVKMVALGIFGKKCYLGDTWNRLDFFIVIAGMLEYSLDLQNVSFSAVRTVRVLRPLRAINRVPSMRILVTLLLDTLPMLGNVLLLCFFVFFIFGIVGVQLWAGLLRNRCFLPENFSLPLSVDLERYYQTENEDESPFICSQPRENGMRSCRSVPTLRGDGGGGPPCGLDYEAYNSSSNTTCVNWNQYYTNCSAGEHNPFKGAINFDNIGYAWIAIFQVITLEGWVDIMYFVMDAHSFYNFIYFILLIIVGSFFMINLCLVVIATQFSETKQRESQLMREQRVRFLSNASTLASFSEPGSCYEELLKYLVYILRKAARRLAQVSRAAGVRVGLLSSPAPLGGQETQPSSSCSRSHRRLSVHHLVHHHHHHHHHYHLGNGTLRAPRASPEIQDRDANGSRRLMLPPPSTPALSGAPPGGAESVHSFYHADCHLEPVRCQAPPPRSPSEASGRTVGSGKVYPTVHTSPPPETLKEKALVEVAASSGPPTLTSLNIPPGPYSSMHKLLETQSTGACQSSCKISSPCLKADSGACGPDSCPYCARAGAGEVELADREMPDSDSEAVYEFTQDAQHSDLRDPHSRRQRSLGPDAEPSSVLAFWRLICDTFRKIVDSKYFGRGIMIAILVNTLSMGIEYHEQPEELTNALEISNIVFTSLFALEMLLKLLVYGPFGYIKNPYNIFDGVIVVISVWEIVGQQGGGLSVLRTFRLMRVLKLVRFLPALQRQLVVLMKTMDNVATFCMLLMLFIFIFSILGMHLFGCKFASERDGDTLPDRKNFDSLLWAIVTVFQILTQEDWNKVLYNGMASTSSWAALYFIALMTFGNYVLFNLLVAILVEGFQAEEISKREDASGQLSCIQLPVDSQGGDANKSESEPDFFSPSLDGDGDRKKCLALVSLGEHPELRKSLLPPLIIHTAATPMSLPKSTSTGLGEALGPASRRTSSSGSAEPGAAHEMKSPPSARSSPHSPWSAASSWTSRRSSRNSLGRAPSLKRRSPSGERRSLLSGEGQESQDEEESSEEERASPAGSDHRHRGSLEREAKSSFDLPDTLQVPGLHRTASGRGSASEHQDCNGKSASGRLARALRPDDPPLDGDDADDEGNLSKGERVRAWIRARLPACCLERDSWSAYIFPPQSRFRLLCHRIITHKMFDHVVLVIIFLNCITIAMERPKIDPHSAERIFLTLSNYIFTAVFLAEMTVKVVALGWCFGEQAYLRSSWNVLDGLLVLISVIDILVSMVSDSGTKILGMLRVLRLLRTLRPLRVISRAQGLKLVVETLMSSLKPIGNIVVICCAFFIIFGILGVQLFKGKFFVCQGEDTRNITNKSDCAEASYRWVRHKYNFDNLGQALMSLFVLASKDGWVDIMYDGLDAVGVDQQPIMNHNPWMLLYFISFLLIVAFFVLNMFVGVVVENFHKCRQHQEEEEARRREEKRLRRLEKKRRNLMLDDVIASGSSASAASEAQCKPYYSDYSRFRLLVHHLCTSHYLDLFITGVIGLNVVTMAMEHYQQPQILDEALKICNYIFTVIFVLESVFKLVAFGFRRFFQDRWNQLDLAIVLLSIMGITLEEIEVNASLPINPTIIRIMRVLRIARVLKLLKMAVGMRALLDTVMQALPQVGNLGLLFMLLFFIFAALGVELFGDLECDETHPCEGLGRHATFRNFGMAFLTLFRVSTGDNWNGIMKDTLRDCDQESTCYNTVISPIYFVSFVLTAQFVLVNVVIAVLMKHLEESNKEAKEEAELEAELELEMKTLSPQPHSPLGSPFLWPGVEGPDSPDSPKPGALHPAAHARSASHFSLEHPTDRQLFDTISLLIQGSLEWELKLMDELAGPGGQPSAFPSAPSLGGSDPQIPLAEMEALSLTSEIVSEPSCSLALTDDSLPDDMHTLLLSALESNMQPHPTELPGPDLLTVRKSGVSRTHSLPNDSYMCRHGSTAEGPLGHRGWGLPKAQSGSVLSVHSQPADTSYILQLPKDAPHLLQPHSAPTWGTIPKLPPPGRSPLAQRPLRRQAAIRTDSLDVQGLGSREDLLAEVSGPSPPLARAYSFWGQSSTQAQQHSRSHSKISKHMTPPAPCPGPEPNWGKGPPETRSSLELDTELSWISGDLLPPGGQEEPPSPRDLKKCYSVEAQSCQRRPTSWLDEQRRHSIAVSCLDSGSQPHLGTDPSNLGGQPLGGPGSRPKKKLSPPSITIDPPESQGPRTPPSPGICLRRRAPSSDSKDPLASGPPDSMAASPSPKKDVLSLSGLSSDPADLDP

In the case of `O[C@@H](COc1ccc(F)cc1)CN1CCC(F)(F)CC1` [KKRE10178, (R)-1-(4,4-difluoropiperidin-1-yl)-3-(4-fluorophenoxy)propan-2-ol], the inhibition in experiment [1] was determined as 37.6%. Further, the inhibition at 101 µM on TREK-1 channel amounted to 66 ± 4.05%.
The like results for `O[C@@H](COc1ccc(F)cc1)CN1CCC(O)(c2ccccc2)CC1` [KKRE10179] were, in that order, 16% and 19.9 ± 4.25%.
In the case of `O[C@H](COc1ccc(F)cc1)CN1CCC(F)(F)CC1` [KKRE10180, (S)-1-(4,4-difluoropiperidin-1-yl)-3-(4-fluorophenoxy)propan-2-ol], the inhibition in experiment [1] was determined as 17.3%. The inhibition at 101 µM at TREK-1 channel was 23.3 ± 10%.
For `O[C@H](COc1ccc(F)cc1)CN1CCC(O)(c2ccccc2)CC1` [KKRE10181] the same measures were 35.4% and 53.9 ± 1.62%.
For `O[C@@H](COc1ccc(C(F)(F)F)cc1)CN1CCC(N2CCOCC2)CC1` [KKRE10182, (R)-1-(4-morpholinopiperidin-1-yl)-3-(4-(trifluoromethyl)phenoxy)propan-2-ol] the same measures were 12.5% and 46.6 ± 6.25%.
For `O[C@@H](COc1ccc(C(F)(F)F)cc1)CN1CCC(N2CCCCC2)CC1` [KKRE10183, (R)-1-(1,4′-bipiperidin-1′-yl)-3-(4-(trifluoromethyl)phenoxy)propan-2-ol] the same measures were 12% and 36.4 ± 7.38%.
With `O[C@@H](COc1ccc(C(F)(F)F)cc1)CN1CCC(N2CCCC2)CC1` [KKRE10184, (R)-1-(4-(pyrrolidin-1-yl)piperidin-1-yl)-3-(4-(trifluoromethyl)phenoxy)propan-2-ol], the inhibition in experiment [1] was 9.54%. At TREK-1 channel, the inhibition at 101 µM worked out at 37.4 ± 6.98%.
The like results for `O[C@@H](COc1ccc(C(F)(F)F)cc1)CN1CCC(F)(F)CC1` [KKRE10185, (R)-1-(4,4-difluoropiperidin-1-yl)-3-(4-(trifluoromethyl)phenoxy)propan-2-ol] were, in that order, 14.8% and 60.8 ± 7.47%.
The like results for `O[C@@H](COc1ccc(C(F)(F)F)cc1)CN1CCC(O)(c2ccccc2)CC1` [KKRE10186, (R)-1-(2-hydroxy-3-(4-(trifluoromethyl)phenoxy)propyl)-4-phenylpiperidin-4-ol] were, in that order, 46.1% and 54 ± 12.1%.
The like results for `O[C@H](COc1ccc(C(F)(F)F)cc1)CN1CCC(N2CCOCC2)CC1` [KKRE10187, (S)-1-(4-morpholinopiperidin-1-yl)-3-(4-(trifluoromethyl)phenoxy)propan-2-ol] were, in that order, 10.1% and 49.2 ± 6.75%.
With `O[C@H](COc1ccc(C(F)(F)F)cc1)CN1CCC(N2CCCCC2)CC1` [KKRE10188, (S)-1-(1,4′-bipiperidin-1′-yl)-3-(4-(trifluoromethyl)phenoxy)propan-2-ol], the inhibition in experiment [1] came to 5.73%. Further, the inhibition at 101 µM on TREK-1 channel came out at 55.6 ± 0.23%.
The like results for `Cc1ccc(OC[C@H](O)CN2CCN(CC(=O)NCc3ccccc3)CC2)cc1` [KKRE10196, (R)-N-benzyl-2-(4-(2-hydroxy-3-(p-tolyloxy)propyl)piperazin-1-yl)acetamide] were, in that order, 26% and 4.7 ± 1.04%.
The like results for `Cc1ccc(OC[C@@H](O)CN2CCN(CC(=O)NCc3ccccc3)CC2)cc1` [KKRE10197, (S)-N-benzyl-2-(4-(2-hydroxy-3-(p-tolyloxy)propyl)piperazin-1-yl)acetamide] were, in that order, 27.1% and 13.5 ± 3.9%.
On to `Cc1ccc(CNC(=O)CN2CCN(C[C@@H](O)COc3ccc(C)cc3)CC2)cc1` [KKRE10198, (R)-2-(4-(2-hydroxy-3-(p-tolyloxy)propyl)piperazin-1-yl)-N-(4-methylbenzyl)acetamide], for which the inhibition in experiment [1] was 28.6%. Moreover, at TREK-1 channel, the inhibition at 10 µM is 29.9% and the inhibition at 101 µM came out at 29.9 ± 3.9%.
As for `Cc1ccc(CNC(=O)CN2CCN(C[C@H](O)COc3ccc(C)cc3)CC2)cc1` [KKRE10199, (S)-2-(4-(2-hydroxy-3-(p-tolyloxy)propyl)piperazin-1-yl)-N-(4-methylbenzyl)acetamide], in experiment [1], the inhibition is 33.9%. Further, at TREK-1 channel, the inhibition at 101 µM amounted to 11 ± 2.58%.
Regarding `Cc1ccc(OC[C@H](O)CN2CCN(CC(=O)NCc3ccc(C(F)(F)F)cc3)CC2)cc1` [KKRE10200, (R)-2-(4-(2-hydroxy-3-(p-tolyloxy)propyl)piperazin-1-yl)-N-(4-(trifluoromethyl)benzyl)acetamide], the inhibition in experiment [1] was found to be 43.7%. Moreover, on TREK-1 channel, the inhibition at 10 µM amounted to 30.9% and the inhibition at 101 µM was found to be 30.9 ± 3.86%.
For `Cc1ccc(OC[C@@H](O)CN2CCN(CC(=O)NCc3ccc(C(F)(F)F)cc3)CC2)cc1` [KKRE10201, (S)-2-(4-(2-hydroxy-3-(p-tolyloxy)propyl)piperazin-1-yl)-N-(4-(trifluoromethyl)benzyl)acetamide] the same measures were 55.4%, 25.4% and 25.4 ± 7.87%.
As to `O=C(CN1CCN(C[C@@H](O)COc2ccccc2)CC1)NCc1ccccc1` [KKRE10202, (R)-N-benzyl-2-(4-(2-hydroxy-3-phenoxypropyl)piperazin-1-yl)acetamide], the inhibition in experiment [1] amounted to 21.4%. Also, the inhibition at 101 µM on TREK-1 channel amounted to 0.84 ± 1.76%.
In the case of `O=C(CN1CCN(C[C@H](O)COc2ccccc2)CC1)NCc1ccccc1` [KKRE10203, (S)-N-benzyl-2-(4-(2-hydroxy-3-phenoxypropyl)piperazin-1-yl)acetamide], in experiment [1], the inhibition was 17%. At TREK-1 channel, the inhibition at 10 µM was 38% and the inhibition at 101 µM came to 38 ± 6.42%.
As for `Cc1ccc(CNC(=O)CN2CCN(C[C@@H](O)COc3ccccc3)CC2)cc1` [KKRE10204, (R)-2-(4-(2-hydroxy-3-phenoxypropyl)piperazin-1-yl)-N-(4-methylbenzyl)acetamide], the inhibition in experiment [1] is 12.3%. Moreover, on TREK-1 channel, the inhibition at 10 µM came to 57.5% and the inhibition at 101 µM stood at 16.3 ± 12.9%.
